Results from the kinase profiling compilation of Christmann-Franck et al. (2016).

Experiments:
Assay in all cases: radiometric filter-binding kinase assay, Kinaseprofiler
[1] = tested on: AKT3 (human), Q9Y243 [S472D]; conditions: compound 1.0 µM; ATP 45 µM
ALK (human) = ALK (human) (UniProt Q9UM73); conditions: compound 1.0 µM; ATP 200 µM
BTK (human) = BTK (human) (UniProt Q06187); conditions: compound 1.0 µM; ATP 200 µM
CAMK4 (human) = CAMK4 (human) (UniProt Q16566); conditions: compound 1.0 µM; ATP 10 µM
CDK1 CCNB1 (human) = CDK1 CCNB1 (human) (UniProt P06493+P14635); conditions: compound 1.0 µM; ATP 45 µM
[2] = molecular target: CSNK2A1 CSNK2B CSNK2A2 (human) (UniProt P19784+P68400+P67870); conditions: compound 1.0 µM; ATP 15 µM
DAPK3 (human) = DAPK3 (human) (UniProt O43293); conditions: compound 1.0 µM; ATP 15 µM
[3] = tested on: DDR2 (human), Q16832 [S642A]; conditions: compound 1.0 µM; ATP 200 µM
[4] = tested on: EEF2K (human), O00418 [H23R]; conditions: compound 1.0 µM; ATP 15 µM
[5] = tested on: EGFR (human), P00533 [L858R]; conditions: compound 1.0 µM; ATP 10 µM
[6] = tested on: EPHB2 (human), P29323 [A848S/K918E]; conditions: compound 1.0 µM; ATP 10 µM
EPHB3 (human) = EPHB3 (human) (UniProt P54753); conditions: compound 1.0 µM; ATP 90 µM
FYN (human) = FYN (human) (UniProt P06241); conditions: compound 1.0 µM; ATP 70 µM
INSR (human) = INSR (human) (UniProt P06213); conditions: compound 1.0 µM; ATP 200 µM
[7] = tested on: KIT (human), P10721 [D816V]; conditions: compound 1.0 µM; ATP 200 µM
MAP2K6 (human) = MAP2K6 (human) (UniProt P52564); conditions: compound 1.0 µM; ATP 10 µM
MAP3K5 (human) = MAP3K5 (human) (UniProt Q99683); conditions: compound 1.0 µM; ATP 200 µM
MAP3K7 (human) = MAP3K7 (human) (UniProt O43318); conditions: compound 1.0 µM; ATP 45 µM
MAP3K9 (human) = MAP3K9 (human) (UniProt P80192); conditions: compound 1.0 µM; ATP 45 µM
MAPK11 (human) = MAPK11 (human) (UniProt Q15759); conditions: compound 1.0 µM; ATP 45 µM
[8] = tested on: MAPKAPK5 (human), Q8IW41 [R291E]; conditions: compound 1.0 µM; ATP 15 µM
NEK11 (human) = NEK11 (human) (UniProt Q8NG66); conditions: compound 1.0 µM; ATP 200 µM
NEK6 (human) = NEK6 (human) (UniProt Q9HC98); conditions: compound 1.0 µM; ATP 45 µM
NTRK1 (human) = NTRK1 (human) (UniProt P04629); conditions: compound 1.0 µM; ATP 120 µM
PIM2 (human) = PIM2 (human) (UniProt Q9P1W9); conditions: compound 1.0 µM; ATP 15 µM
PRKCE (human) = PRKCE (human) (UniProt Q02156); conditions: compound 1.0 µM; ATP 45 µM
PRKCG (human) = PRKCG (human) (UniProt P05129); conditions: compound 1.0 µM; ATP 15 µM
PRKCI (human) = PRKCI (human) (UniProt P41743); conditions: compound 1.0 µM; ATP 155 µM
ROCK1 (human) = ROCK1 (human) (UniProt Q13464); conditions: compound 1.0 µM; ATP 70 µM
[9] = tested on: SGK1 (human), O00141 [S422D]; conditions: compound 1.0 µM; ATP 90 µM
SGK3 (human) = SGK3 (human) (UniProt Q96BR1); conditions: compound 1.0 µM; ATP 155 µM
SRPK3 (human) = SRPK3 (human) (UniProt Q9UPE1); conditions: compound 1.0 µM; ATP 15 µM
STK11 (human) = STK11 (human) (UniProt Q15831); conditions: compound 1.0 µM; ATP 155 µM
STK33 (human) = STK33 (human) (UniProt Q9BYT3); conditions: compound 1.0 µM; ATP 155 µM
TBK1 (human) = TBK1 (human) (UniProt Q9UHD2); conditions: compound 1.0 µM; ATP 155 µM
[10] = tested on: TEK (human), Q02763 [Q939H/Q940H]; conditions: compound 1.0 µM; ATP 200 µM
TYRO3 (human) = TYRO3 (human) (UniProt Q06418); conditions: compound 1.0 µM; ATP 45 µM
WNK3 (human) = WNK3 (human) (UniProt Q9BYP7); conditions: compound 1.0 µM; ATP 200 µM

BTK (human), sequence (Q06187 whole entry, looked up): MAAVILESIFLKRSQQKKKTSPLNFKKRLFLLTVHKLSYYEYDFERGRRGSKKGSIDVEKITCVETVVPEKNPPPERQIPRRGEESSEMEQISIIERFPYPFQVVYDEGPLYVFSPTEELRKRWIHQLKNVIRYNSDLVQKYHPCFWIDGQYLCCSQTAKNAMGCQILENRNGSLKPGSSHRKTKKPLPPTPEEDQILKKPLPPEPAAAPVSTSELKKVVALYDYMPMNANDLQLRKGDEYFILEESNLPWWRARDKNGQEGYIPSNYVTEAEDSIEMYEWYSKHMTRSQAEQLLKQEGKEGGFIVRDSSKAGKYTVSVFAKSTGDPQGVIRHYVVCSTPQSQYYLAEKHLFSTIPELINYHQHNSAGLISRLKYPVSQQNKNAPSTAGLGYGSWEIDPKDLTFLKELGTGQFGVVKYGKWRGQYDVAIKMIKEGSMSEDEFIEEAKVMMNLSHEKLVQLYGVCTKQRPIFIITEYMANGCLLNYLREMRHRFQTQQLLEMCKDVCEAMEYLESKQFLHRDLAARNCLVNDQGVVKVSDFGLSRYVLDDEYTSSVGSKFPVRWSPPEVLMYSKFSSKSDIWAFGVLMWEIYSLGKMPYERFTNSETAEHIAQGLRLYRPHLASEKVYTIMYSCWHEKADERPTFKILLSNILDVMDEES
ALK (human), sequence (Q9UM73 whole entry, looked up): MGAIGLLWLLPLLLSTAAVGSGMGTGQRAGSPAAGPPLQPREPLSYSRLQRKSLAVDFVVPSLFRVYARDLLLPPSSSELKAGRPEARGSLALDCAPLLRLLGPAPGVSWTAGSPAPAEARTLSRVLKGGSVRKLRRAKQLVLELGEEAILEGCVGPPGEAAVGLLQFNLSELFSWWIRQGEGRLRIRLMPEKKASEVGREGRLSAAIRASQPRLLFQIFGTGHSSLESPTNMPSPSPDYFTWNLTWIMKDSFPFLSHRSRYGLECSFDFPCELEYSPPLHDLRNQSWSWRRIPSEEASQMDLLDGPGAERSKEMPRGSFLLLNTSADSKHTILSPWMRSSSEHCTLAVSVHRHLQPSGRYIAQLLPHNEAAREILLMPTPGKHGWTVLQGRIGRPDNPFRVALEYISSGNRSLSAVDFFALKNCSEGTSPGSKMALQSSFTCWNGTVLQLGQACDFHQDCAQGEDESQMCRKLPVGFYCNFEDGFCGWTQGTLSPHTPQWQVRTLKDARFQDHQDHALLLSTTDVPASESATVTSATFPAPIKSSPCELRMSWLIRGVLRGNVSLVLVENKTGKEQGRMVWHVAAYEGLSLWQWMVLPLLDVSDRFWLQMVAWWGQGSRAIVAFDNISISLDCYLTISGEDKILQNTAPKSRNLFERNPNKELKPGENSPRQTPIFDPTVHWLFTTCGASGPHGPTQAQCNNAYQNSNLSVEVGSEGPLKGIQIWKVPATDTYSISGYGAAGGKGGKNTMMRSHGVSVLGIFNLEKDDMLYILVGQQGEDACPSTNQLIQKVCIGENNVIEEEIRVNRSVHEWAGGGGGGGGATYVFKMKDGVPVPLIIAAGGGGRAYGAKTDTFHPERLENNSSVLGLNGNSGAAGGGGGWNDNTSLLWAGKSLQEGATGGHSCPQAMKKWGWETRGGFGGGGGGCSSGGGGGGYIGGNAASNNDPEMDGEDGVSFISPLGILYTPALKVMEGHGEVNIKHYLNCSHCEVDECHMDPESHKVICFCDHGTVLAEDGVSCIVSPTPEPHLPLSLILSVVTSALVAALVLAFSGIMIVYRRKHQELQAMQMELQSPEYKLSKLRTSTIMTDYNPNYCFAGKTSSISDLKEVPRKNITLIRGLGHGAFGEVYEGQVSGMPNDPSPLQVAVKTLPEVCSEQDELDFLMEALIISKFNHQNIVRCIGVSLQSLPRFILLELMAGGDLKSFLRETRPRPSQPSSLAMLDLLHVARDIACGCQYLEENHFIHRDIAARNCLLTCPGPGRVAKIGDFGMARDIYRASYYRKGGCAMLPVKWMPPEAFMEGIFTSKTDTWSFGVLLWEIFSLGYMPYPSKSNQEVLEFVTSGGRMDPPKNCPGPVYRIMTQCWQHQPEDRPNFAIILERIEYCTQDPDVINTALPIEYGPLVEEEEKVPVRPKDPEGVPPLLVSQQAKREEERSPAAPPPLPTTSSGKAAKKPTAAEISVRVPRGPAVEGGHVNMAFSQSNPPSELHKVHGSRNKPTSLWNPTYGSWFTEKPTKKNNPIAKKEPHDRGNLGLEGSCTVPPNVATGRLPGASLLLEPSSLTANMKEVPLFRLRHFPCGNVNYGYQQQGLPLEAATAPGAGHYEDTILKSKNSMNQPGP
TEK (human), Q02763 [Q939H/Q940H], sequence (Q02763 whole entry Q939H/Q940H, looked up): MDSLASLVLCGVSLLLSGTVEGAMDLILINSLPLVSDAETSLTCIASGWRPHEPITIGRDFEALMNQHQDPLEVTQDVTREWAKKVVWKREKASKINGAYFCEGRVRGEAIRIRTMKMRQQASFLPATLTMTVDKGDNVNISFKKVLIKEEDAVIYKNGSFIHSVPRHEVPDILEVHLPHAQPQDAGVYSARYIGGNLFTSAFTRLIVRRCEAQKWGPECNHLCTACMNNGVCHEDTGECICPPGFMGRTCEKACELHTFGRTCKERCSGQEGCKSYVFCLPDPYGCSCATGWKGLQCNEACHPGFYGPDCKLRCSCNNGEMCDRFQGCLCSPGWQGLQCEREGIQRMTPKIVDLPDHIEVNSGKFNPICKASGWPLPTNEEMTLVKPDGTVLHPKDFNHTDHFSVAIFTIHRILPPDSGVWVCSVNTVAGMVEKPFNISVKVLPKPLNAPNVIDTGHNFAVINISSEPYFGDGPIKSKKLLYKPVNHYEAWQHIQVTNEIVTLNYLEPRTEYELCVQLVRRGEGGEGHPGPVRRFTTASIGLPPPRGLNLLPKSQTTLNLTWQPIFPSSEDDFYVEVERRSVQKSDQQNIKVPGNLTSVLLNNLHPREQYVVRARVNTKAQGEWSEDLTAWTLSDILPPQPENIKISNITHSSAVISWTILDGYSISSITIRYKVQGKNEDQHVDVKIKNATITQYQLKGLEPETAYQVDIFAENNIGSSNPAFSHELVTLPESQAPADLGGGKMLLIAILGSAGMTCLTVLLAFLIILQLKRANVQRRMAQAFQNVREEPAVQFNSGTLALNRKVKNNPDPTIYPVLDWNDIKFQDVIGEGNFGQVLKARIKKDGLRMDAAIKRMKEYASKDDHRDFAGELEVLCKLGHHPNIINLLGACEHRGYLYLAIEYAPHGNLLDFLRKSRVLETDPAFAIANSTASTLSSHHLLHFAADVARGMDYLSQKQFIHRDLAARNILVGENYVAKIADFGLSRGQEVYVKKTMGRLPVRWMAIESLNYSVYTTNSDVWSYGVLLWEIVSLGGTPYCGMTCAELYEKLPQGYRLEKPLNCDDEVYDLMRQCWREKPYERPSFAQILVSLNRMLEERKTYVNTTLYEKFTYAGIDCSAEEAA
TBK1 (human), sequence (Q9UHD2 whole entry, looked up): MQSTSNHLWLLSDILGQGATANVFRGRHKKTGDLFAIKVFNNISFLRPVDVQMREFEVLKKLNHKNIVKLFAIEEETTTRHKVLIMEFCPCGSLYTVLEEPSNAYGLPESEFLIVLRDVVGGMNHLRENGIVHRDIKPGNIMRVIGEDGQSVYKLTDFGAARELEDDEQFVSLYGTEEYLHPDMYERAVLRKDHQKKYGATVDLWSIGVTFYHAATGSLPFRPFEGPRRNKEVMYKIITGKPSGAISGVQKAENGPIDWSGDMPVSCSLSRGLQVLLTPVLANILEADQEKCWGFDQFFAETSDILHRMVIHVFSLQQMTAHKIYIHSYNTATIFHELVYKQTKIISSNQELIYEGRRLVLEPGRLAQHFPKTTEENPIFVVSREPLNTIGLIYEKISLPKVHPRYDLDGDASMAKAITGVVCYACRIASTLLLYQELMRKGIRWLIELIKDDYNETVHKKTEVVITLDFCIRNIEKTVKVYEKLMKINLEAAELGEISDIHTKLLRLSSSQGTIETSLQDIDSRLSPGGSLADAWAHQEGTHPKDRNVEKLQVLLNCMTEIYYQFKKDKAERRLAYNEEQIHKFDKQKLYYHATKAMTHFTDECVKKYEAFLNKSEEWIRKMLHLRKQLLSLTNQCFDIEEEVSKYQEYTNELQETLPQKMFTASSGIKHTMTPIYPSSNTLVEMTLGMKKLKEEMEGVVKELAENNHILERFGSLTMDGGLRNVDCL
TYRO3 (human), sequence (Q06418 whole entry, looked up): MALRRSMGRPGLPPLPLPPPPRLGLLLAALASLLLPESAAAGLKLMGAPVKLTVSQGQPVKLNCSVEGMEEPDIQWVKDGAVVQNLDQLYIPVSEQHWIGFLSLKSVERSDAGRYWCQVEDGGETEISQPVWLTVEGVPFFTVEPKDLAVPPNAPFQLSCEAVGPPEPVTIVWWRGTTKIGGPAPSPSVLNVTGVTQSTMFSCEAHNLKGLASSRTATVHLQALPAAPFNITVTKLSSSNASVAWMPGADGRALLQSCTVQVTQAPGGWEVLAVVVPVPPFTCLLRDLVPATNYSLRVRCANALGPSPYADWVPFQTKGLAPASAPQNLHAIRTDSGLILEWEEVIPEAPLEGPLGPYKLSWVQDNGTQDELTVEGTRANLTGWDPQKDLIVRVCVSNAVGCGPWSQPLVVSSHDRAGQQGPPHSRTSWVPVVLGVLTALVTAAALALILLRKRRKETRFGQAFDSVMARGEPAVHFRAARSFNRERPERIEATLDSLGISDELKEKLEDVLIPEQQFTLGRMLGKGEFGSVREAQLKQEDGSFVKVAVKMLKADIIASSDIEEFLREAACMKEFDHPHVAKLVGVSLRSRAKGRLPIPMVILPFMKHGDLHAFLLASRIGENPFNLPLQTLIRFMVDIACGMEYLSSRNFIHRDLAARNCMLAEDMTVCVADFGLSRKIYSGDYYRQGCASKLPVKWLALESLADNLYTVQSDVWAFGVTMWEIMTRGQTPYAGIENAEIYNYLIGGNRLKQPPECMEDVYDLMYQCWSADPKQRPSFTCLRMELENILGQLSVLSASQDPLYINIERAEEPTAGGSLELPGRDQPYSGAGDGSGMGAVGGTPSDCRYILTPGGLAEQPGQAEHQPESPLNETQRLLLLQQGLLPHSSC

For `CN(C)S(=O)(=O)Nc1ccc2ccc3ncc(-c4cnn(C)c4)cc3c(=O)c2c1`, the residual activity [1] was 96%, the residual activity (ALK (human)) was 0% and the residual activity (BTK (human)) was 83%. The residual activity (CAMK4 (human)) was 98%, the residual activity (CDK1 CCNB1 (human)) was 66% and the residual activity [2] was 117%. The residual activity (DAPK3 (human)) was 87%, the residual activity [3] was 108% and the residual activity [4] was 93%. It also gave a residual activity [5] of 41%, a residual activity [6] of 103% and a residual activity (EPHB3 (human)) of 98%. It also gave a residual activity (FYN (human)) of 64%, a residual activity (INSR (human)) of 109% and a residual activity [7] of 95%. For the same compound, the residual activity (MAP2K6 (human)) was 117%, the residual activity (MAP3K5 (human)) was 98% and the residual activity (MAP3K7 (human)) was 75%. The residual activity (MAP3K9 (human)) was 61%, the residual activity (MAPK11 (human)) was 113% and the residual activity [8] was 97%. The residual activity (NEK11 (human)) was 118%, the residual activity (NEK6 (human)) was 93% and the residual activity (NTRK1 (human)) was 1%. The residual activity (PIM2 (human)) was 98%, the residual activity (PRKCE (human)) was 103% and the residual activity (PRKCG (human)) was 101%. For the same compound, the residual activity (PRKCI (human)) was 108%, the residual activity (ROCK1 (human)) was 107% and the residual activity [9] was 96%. It also gave a residual activity (SGK3 (human)) of 94%, a residual activity (SRPK3 (human)) of 83% and a residual activity (STK11 (human)) of 134%. For the same compound, the residual activity (STK33 (human)) was 90%, the residual activity (TBK1 (human)) was 93% and the residual activity [10] was 66%. The residual activity (TYRO3 (human)) was 97% and the residual activity (WNK3 (human)) was 78%.
